Laboratory results as given in ChEMBL document CHEMBL1201862, “PubChem BioAssay data set” (2004).
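Cells were grown in 96-well plates and exposed to each compound for 48 hours at five concentrations; endpoints were interpolated linearly between bracketing concentrations, or set to the highest concentration if not reached. Abbreviation: GI50, concentration required for 50% inhibition of growth.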 Active and inactive are the calls of the source. Rule as the data show it: active = GI50 up to about 1.1 µM and inactive = higher.

Columns and labels:
Assay in all cases: NCI tumour cell line growth inhibition, 48 h
HOP-18 = tested on: HOP-18
UO-31 = tested on: UO-31
MOLT-4 = tested on: MOLT-4
SK-MEL-28 = tested on: SK-MEL-28
DLD-1 = tested on: DLD-1
ACHN = tested on: ACHN
SW-620 = tested on: SW-620
A498 = tested on: A498
HT-29 = tested on: HT-29
OVCAR-4 = tested on: OVCAR-4
TK-10 = tested on: TK-10
SNB-75 = tested on: SNB-75
SK-OV-3 = tested on: SK-OV-3
HCC 2998 = tested on: HCC 2998
NCI-H460 = tested on: NCI-H460
COLO 205 = tested on: COLO 205
M19-MEL = tested on: M19-MEL
OVCAR-3 = tested on: OVCAR-3
XF498 = tested on: XF498
CCRF-CEM = tested on: CCRF-CEM
LXFL 529 = tested on: LXFL 529
EKVX = tested on: EKVX
RXF 393 = tested on: RXF 393
SF-539 = tested on: SF-539
SF-295 = tested on: SF-295
NCI-H522 = tested on: NCI-H522
OVCAR-8 = tested on: OVCAR-8
SR = tested on: SR
DMS-273 = tested on: DMS-273
SF-268 = tested on: SF-268
IGROV-1 = tested on: IGROV-1
Malme-3M = tested on: Malme-3M
RPMI-8226 = tested on: RPMI-8226
U-251 = tested on: U-251
HCT-15 = tested on: HCT-15
SN12C = tested on: SN12C
NCI-H226 = tested on: NCI-H226
SK-MEL-5 = tested on: SK-MEL-5
KM-20L2 = tested on: KM-20L2
A549 = tested on: A549
K562 = tested on: K562
HOP-92 = tested on: HOP-92
M14 = tested on: M14
HL-60 = tested on: HL-60
CAKI-1 = tested on: CAKI-1
HCT-116 = tested on: HCT-116
NCI-H23 = tested on: NCI-H23
SNB-19 = tested on: SNB-19
786-0 = tested on: 786-0
MCF7 = tested on: MCF7
MDA-MB-435 = tested on: MDA-MB-435
LOX IMVI = tested on: LOX IMVI
KM12 = tested on: KM12
MDA-N = tested on: MDA-N
HOP-62 = tested on: HOP-62
Hs-578T = tested on: Hs-578T
NCI/ADR-RES = tested on: NCI/ADR-RES
PC-3 = tested on: PC-3
SK-MEL-2 = tested on: SK-MEL-2
UACC-257 = tested on: UACC-257
OVCAR-5 = tested on: OVCAR-5
SNB-78 = tested on: SNB-78
DMS-114 = tested on: DMS-114
DU-145 = tested on: DU-145
UACC-62 = tested on: UACC-62
T47D = tested on: T47D
MDA-MB-231 = tested on: MDA-MB-231
BT-549 = tested on: BT-549

CC1CN1P1(N2CC2C)=NP(N2CC2C)(N2CC2C)=NP(N2CC2C)(N2CC2C)=N1 (stereo unspecified)
GI50 (HOP-18): > 50 µM (inactive) | GI50 (UO-31): > 50 µM (inactive) | GI50 (MOLT-4): > 50 µM (inactive) | GI50 (SK-MEL-28): > 50 µM (inactive) | GI50 (DLD-1): > 50 µM (inactive) | GI50 (ACHN): > 50 µM (inactive) | GI50 (SW-620): > 50 µM (inactive) | GI50 (A498): > 50 µM (inactive) | GI50 (HT-29): > 50 µM (inactive) | GI50 (OVCAR-4): > 50 µM (inactive) | GI50 (TK-10): > 50 µM (inactive) | GI50 (SNB-75): > 50 µM (inactive) | GI50 (SK-OV-3): > 50 µM (inactive) | GI50 (HCC 2998): > 50 µM (inactive) | GI50 (NCI-H460): > 50 µM (inactive) | GI50 (COLO 205): > 50 µM (inactive) | GI50 (M19-MEL): > 50 µM (inactive) | GI50 (OVCAR-3): > 50 µM (inactive) | GI50 (XF498): > 50 µM (inactive) | GI50 (CCRF-CEM): > 50 µM (inactive) | GI50 (LXFL 529): > 50 µM (inactive) | GI50 (EKVX): > 50 µM (inactive) | GI50 (RXF 393): > 50 µM (inactive) | GI50 (SF-539): > 50 µM (inactive) | GI50 (SF-295): > 50 µM (inactive) | GI50 (NCI-H522): > 50 µM (inactive) | GI50 (OVCAR-8): > 50 µM (inactive) | GI50 (SR): > 50 µM (inactive) | GI50 (DMS-273): > 50 µM (inactive) | GI50 (SF-268): > 50 µM (inactive) | GI50 (IGROV-1): > 50 µM (inactive) | GI50 (Malme-3M): > 50 µM (inactive) | GI50 (RPMI-8226): > 50 µM (inactive) | GI50 (U-251): > 50 µM (inactive) | GI50 (HCT-15): > 50 µM | GI50 (SN12C): > 50 µM (inactive) | GI50 (NCI-H226): > 50 µM (inactive) | GI50 (SK-MEL-5): > 50 µM (inactive) | GI50 (KM-20L2): > 50 µM (inactive) | GI50 (A549): > 50 µM (inactive) | GI50 (K562): > 50 µM (inactive) | GI50 (HOP-92): > 50 µM (inactive) | GI50 (M14): > 50 µM (inactive) | GI50 (HL-60): > 50 µM (inactive) | GI50 (CAKI-1): > 50 µM (inactive) | GI50 (HCT-116): > 50 µM (inactive) | GI50 (NCI-H23): > 50 µM (inactive) | GI50 (SNB-19): > 50 µM (inactive) | GI50 (786-0): > 50 µM (inactive)

O=C1OC2C(O)COC2(O)C1(O)C(C[N+](=O)[O-])c1ccc(Cl)cc1 (stereo unspecified)
GI50 (MCF7): 1.98 µM (inactive) | GI50 (HOP-18): 9.02 µM (inactive) | GI50 (UO-31): 8.79 µM (inactive) | GI50 (MOLT-4): 2.6 µM (inactive) | GI50 (SK-MEL-28): 3.52 µM (inactive) | GI50 (MDA-MB-435): 1.97 µM (inactive) | GI50 (DLD-1): 1.81 µM (inactive) | GI50 (ACHN): 12.4 µM (inactive) | GI50 (LOX IMVI): 2.69 µM (inactive) | GI50 (SW-620): 2.71 µM (inactive) | GI50 (A498): 4.8 µM (inactive) | GI50 (HT-29): 1.99 µM (inactive) | GI50 (OVCAR-4): 8.45 µM (inactive) | GI50 (TK-10): 12.5 µM (inactive) | GI50 (SNB-75): 9.35 µM (inactive) | GI50 (SK-OV-3): 17.1 µM (inactive) | GI50 (HCC 2998): 6.78 µM (inactive) | GI50 (NCI-H460): 13.7 µM (inactive) | GI50 (COLO 205): 3.84 µM (inactive) | GI50 (M19-MEL): 2.5 µM (inactive) | GI50 (OVCAR-3): 7.19 µM (inactive) | GI50 (CCRF-CEM): 3.45 µM (inactive) | GI50 (LXFL 529): 1.95 µM (inactive) | GI50 (EKVX): 23.6 µM (inactive) | GI50 (KM12): 7.36 µM (inactive) | GI50 (MDA-N): 2.76 µM (inactive) | GI50 (HOP-62): 20.6 µM (inactive) | GI50 (RXF 393): 3.29 µM (inactive) | GI50 (SF-539): 3.97 µM (inactive) | GI50 (Hs-578T): 13.4 µM (inactive) | GI50 (NCI/ADR-RES): 21.9 µM (inactive) | GI50 (SF-295): 12.1 µM (inactive) | GI50 (NCI-H522): 9.27 µM (inactive) | GI50 (OVCAR-8): 10.1 µM (inactive) | GI50 (SR): 4.26 µM (inactive) | GI50 (DMS-273): 3.3 µM (inactive) | GI50 (SF-268): 9.79 µM (inactive) | GI50 (IGROV-1): 9.38 µM (inactive) | GI50 (Malme-3M): 16.3 µM (inactive) | GI50 (RPMI-8226): 0.959 µM (active) | GI50 (U-251): 9.29 µM (inactive) | GI50 (HCT-15): 6.84 µM | GI50 (SN12C): 13.7 µM (inactive) | GI50 (NCI-H226): 11.6 µM (inactive) | GI50 (SK-MEL-5): 8.17 µM (inactive) | GI50 (KM-20L2): 2.51 µM (inactive) | GI50 (PC-3): 17 µM (inactive) | GI50 (SK-MEL-2): 15.7 µM (inactive) | GI50 (UACC-257): 6.68 µM (inactive) | GI50 (A549): 16.5 µM (inactive) | GI50 (K562): 2.96 µM (inactive) | GI50 (OVCAR-5): 16.4 µM (inactive) | GI50 (HOP-92): 28.7 µM (inactive) | GI50 (M14): 2.58 µM (inactive) | GI50 (SNB-78): 13.8 µM (inactive) | GI50 (HL-60): 1.76 µM (inactive) | GI50 (DMS-114): 2.76 µM (inactive) | GI50 (DU-145): 18.2 µM (inactive) | GI50 (UACC-62): 10 µM (inactive) | GI50 (CAKI-1): 15.5 µM (inactive) | GI50 (HCT-116): 1.79 µM (inactive) | GI50 (T47D): 13.8 µM (inactive) | GI50 (MDA-MB-231): 30.2 µM (inactive) | GI50 (BT-549): 6.75 µM (inactive) | GI50 (NCI-H23): 6.95 µM (inactive) | GI50 (SNB-19): 15.2 µM (inactive) | GI50 (786-0): 1.82 µM (inactive)
